pEC50: −log10 of the molar value. Where two headings read alike, the source gives them in different places.
Test system: Dengue-2 (Strain New Guinea C)
Experiment: Viral yield assay against Dengue-2 in Vero cells
Assay type: cell-based, Dengue virus
Details: Dengue virus; for pEC50: read-out: Activity (EC50 class) against Dengue-2 Virus in Vero cells; for EC50: read-out: Activity (EC50 in μM) DENV-2
Procedure, shortened: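 Virus yield, titered on Vero cells from cultures harvested at 48 h post infection, gave the EC50. Cultures were infected at MOI 0.1 with dengue-2 and treated with compound or DMSO at 37° C. DENV-1 and DENV-4 were determined similarly.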

[1] = Vero cells, MOI 0.1, harvested 48 hours post infection
[2] = DENV2, viral yield assay, Vero cells, MOI 0.1, 48 hours post infection

Row | Structure (SMILES) | pEC50 [1] | EC50 [2] [µM] | further results
1 | CN1CCc2nc3sc(C(=O)Nc4ccc(Cl)cc4)c(N)c3c(-c3ccccc3)c2C1 [Compound 64, 3-Amino-6-methyl-4-phenyl-5,6,7,8-tetrahydro-thieno[2,3-b][1,6]naphthyridine-2-carboxylic acid (4-chloro-phenyl)-amide] | > 5.30 |  | 
2 | COc1ccc(NC(=O)c2sc3nc(-c4ccccc4)cc(C(F)(F)F)c3c2N)cc1 [Compound 119, 3-Amino-6-phenyl-4-trifluoromethyl-thieno[2,3-b]pyridine-2-carboxylic acid (4-methoxy-phenyl)-amide] | < 4.60 |  | 
3 | Nc1c(C(=O)Nc2nc3ccccc3s2)sc2nc(-c3cccs3)ccc12 [Compound 436, 3-amino-N-(1,3-benzothiaozl-2-yl)-6-(2-thienyl)thieno[2,3-b]pyridine-2-carboxamide] |  |  | EC50 (DENV2, Vero, 48 h): < 5 µM
4 | COc1ccc(-c2ccc3c(N)c(C(=O)NC(C)C)sc3n2)cc1 [Compound 101, 3-Amino-6-(4-methoxy-phenyl)-thieno[2,3-b]pyridine-2-carboxylic acid isopropylamide] | 4.60 to 5.30 |  | 
5 | COc1ccc(NC(=O)c2sc3nc(-c4ccc(OC)c(OC)c4)ccc3c2N)c(OC)c1 [Compound 536, 3-amino-N-(2,4-dimethoxyphenyl)-6-(3,4-dimethoxyphenyl)thieno[2,3-b]pyridine-2-carboxamide] |  | < 5 | 
6 | COc1ccc(NC(=O)c2sc3nc(-c4ccc(F)cc4)ccc3c2N)cc1OC [Compound 619, 3-amino-N-(3,4-dimethoxyphenyl)-6-(4-fluorophenyl)thieno[2,3-b]pyridine-2-carboxamide] |  |  | EC50 (DENV2, Vero, 48 h): < 5 µM
7 | Nc1c(C(=O)N2CCCCC2)sc2nc(-c3cccs3)cc(C(F)(F)F)c12 [Compound 189, (3-Amino-6-thiophen-2-yl-4-trifluoromethyl-thieno[2,3-b]pyridin-2-yl)-piperidin-1-yl-methanone] | < 4.60 |  | 
8 | COc1ccc(NC(=O)c2sc3nc4c(c(-c5ccccc5)c3c2N)CN(C)CC4)cc1 [Compound 50, 3-Amino-6-methyl-4-phenyl-5,6,7,8-tetrahydro-thieno[2,3-b][1,6]naphthyridine-2-carboxylic acid (4-methoxy-phenyl)-amide] | > 5.30 |  | 
9 | Cc1cc(C)c2c(N)c(C(=O)NC34CC5CC(CC(C5)C3)C4)sc2n1 [Compound 122, 3-Amino-4,6-dimethyl-thieno[2,3-b]pyridine-2-carboxylic acid adamantan-1-ylamide] | < 4.60 |  | 
10 | Nc1c(C(=O)N2CCOCC2)sc2nc3c(cc12)CCCCC3 [Compound 139, (3-Amino-6,7,8,9-tetrahydro-5H-1-thia-10-aza-cyclohepta[f]inden-2-yl)-morpholin-4-yl-methanone] |  |  | pEC50 (Vero, 48 h): < 4.60
11 | COc1cccc(-c2ccc3c(N)c(C(=O)Nc4cccc(C)c4C)sc3n2)c1 [Compound 562, 3-amino-N-(2,3-dimethylphenyl)-6-(3-methoxyphenyl)thieno[2,3-b]pyridine-2-carboxamide] |  | < 5 | 
12 | CCc1nnc(NC(=O)c2sc3nc(-c4cccs4)cc(C(F)(F)F)c3c2N)s1 [Compound 90, 3-Amino-6-thiophen-2-yl-4-trifluoromethyl-thieno[2,3-b]pyridine-2-carboxylic acid (5-ethyl-[1,3,4]thiadiazol-2-yl)-amide] |  |  | pEC50 (Vero, 48 h): 4.60 to 5.30
13 | Nc1c(C(=O)Nc2ccccc2C(F)(F)F)sc2nc3c(cc12)CCCC3 [Compound 254, 3-Amino-5,6,7,8-tetrahydro-thieno[2,3-b]quinoline-2-carboxylic acid (2-trifluoromethyl-phenyl)-amide] | < 4.60 |  | 
14 | Nc1c(C(=O)Nc2cccc(C(F)(F)F)c2)sc2nc(C(F)(F)F)ccc12 [Compound 317, 3-amino-6-(trifluoromethyl)-N-[3-(trifluoromethyl)phenyl]thieno[2,3-b]pyridine-2-carboxamide] |  | < 5 | 
15 | COc1cccc(-c2ccc3c(N)c(C(=O)Nc4cccc(SC)c4)sc3n2)c1 [Compound 505, 3-amino-6-(3-methoxyphenyl)-N-(3-methylsulfanylphenyl)thieno[2,3-b] pyridine-2-carboxamide] |  | < 5 | 
16 | CC(=O)c1cccc(NC(=O)c2sc3nc(C)cc(C)c3c2N)c1 [Compound 256, 3-Amino-4,6-dimethyl-thieno[2,3-b]pyridine-2-carboxylic acid (3-acetyl-phenyl)-amide] | < 4.60 |  | 
17 | Nc1cnc2sc(C(=O)Nc3nnc(-c4ccccc4)s3)c(N)c2c1 [Compound 290, 3,5-diamino-N-(5-phenyl-1,3,4-thiadiazol-2-yl)thieno[2,3-b]pyridine-2-carboxamide] |  | < 5 | 
18 | Nc1c(C(=O)N(CCC(=O)O)c2ccc(Cl)cc2)sc2nc(-c3ccc(Cl)cc3)ccc12 [Compound 355, 3-(N-[3-amino-6-(4-chloro-phenyl)thieno [2,3-b]pyridine-2-carbonyl]-4-chloro-anilino) propanoic acid] |  | < 5 | 
19 | Cc1cc(C)c2c(N)c(C(=O)NCc3ccccc3)sc2n1 [Compound 260, 3-Amino-4,6-dimethyl-thieno[2,3-b]pyridine-2-carboxylic acid benzylamide] |  |  | pEC50 (Vero, 48 h): < 4.60

Row | Structure (SMILES) | pEC50 [1] | EC50 [2] [µM] | further results
20 | Nc1c(C(=O)Nc2ccc(Br)cc2)sc2nc(-c3ccc4c(c3)OCO4)ccc12 [Compound 474, 3-amino-6-(1,3-benzodioxol-5-yl)-N-(4-bromophenyl)thieno[2,3-b]pyridine-2-carboxamide] |  | < 5 | 
21 | Nc1c(C(=O)Nc2ccccc2)sc2nc(-c3ccccc3)cc(-c3ccccc3)c12 [Compound 66, 3-Amino-4,6-diphenyl-thieno[2,3-b]pyridine-2-carboxylic acid phenylamide] | 4.60 to 5.30 |  | 
22 | Nc1c(C(=O)Nc2ccccc2)sc2nc3c(cc12)CCCCC3 [Compound 217, 3-Amino-6,7,8,9-tetrahydro-5H-1-thia-10-aza-cyclohepta[f]indene-2-carboxylic acid phenylamide] | < 4.60 |  | 
23 | Cc1ccc2c(N)c(C(=O)Nc3ccc(OC(F)(F)F)cc3)sc2n1 [Compound 457, 3-amino-6-methyl-N-[4-(trifluoromethoxy)phenyl]thieno[2,3-b] pyridine-2-carboxamide] |  | 5 to 25 | 
24 | Nc1c(C(=O)Nc2cc(F)ccc2F)sc2nc(-c3cc(Cl)ccc3Cl)ccc12 [Compound 629, 3-amino-6-(2,5-dichlorophenyl)-N-(2,5-difluorophenyl)thieno[2,3-b]pyridine-2-carboxamide] |  | < 5 | 
25 | N#Cc1c(N)nc2sc(C(=O)Nc3ccc(Br)cc3)c(N)c2c1-c1ccco1 [Compound 6, 3,6-Diamino-5-cyano-4-furan-2-yl-thieno[2,3-b]pyridine-2-carboxylic acid (4-bromo-phenyl)-amide] | > 5.30 |  | 
26 | COCc1cc(C)nc2sc3c(=O)n(-c4cccc5ccccc45)nnc3c12 [Compound 150, 9-Methoxymethyl-7-methyl-3-naphthalen-1-yl-3H-pyrido[3′,2′:4,5]thieno[3,2-d][1,2,3]triazin-4-one] |  |  | pEC50 (Vero, 48 h): < 4.60
27 | CCSc1nc2ccc(NC(=O)c3sc4nc(-c5cccc(OC)c5)ccc4c3N)cc2s1 [Compound 567, 3-amino-N-(2-ethylsulfanyl-1,3-benzo-thiazol-6-yl)-6-(3-methoxphenyl)thieno [2,3-b]pyridine-2-carboxamide] |  | < 5 | 
28 | COc1ccc(-c2cc(-c3ccccc3)nc3sc(C(=O)Nc4ccccc4)c(N)c23)cc1 [Compound 126, 3-Amino-4-(4-methoxy-phenyl)-6-phenyl-thieno[2,3-b]pyridine-2-carboxylic acid phenylamide] | < 4.60 |  | 
29 | Nc1c(C(=O)Nc2ccccc2Br)sc2nc(-c3ccncc3)ccc12 [Compound 466, 3-amino-N-(2-bromophenyl)-6-(4-pyridyl)thieno[2,3-b]pyridine-2-carboxamide] |  | 5 to 25 | 
30 | CN1CCc2nc3sc(C(=O)Nc4ccccc4)c(N)c3cc2C1 [Compound 48, 3-Amino-6-methyl-5,6,7,8-tetrahydro-thieno[2,3-b][1,6]naphthyridine-2-carboxylic acid phenylamide] | > 5.30 |  | 
31 | Cc1ccc(-c2ccc3c(N)c(C(=O)Nc4ccc(F)cc4)sc3n2)cc1 [Compound 640, 3-amino-N-(4-fluorophenyl)-6-(p-tolyl) thieno[2,3-b]pyridine-2-carboxamide] |  | < 5 | 
32 | CN1CCc2nc3sc(C(=O)Nc4ccccc4Cl)c(N)c3cc2C1 [Compound 19, 3-Amino-6-methyl-5,6,7,8-tetrahydro-thieno[2,3-b][1,6]naphthyridine-2-carboxylic acid (2-chloro-phenyl)-amide] | > 5.30 |  | 
33 | CN1CCc2nc3sc(C(=O)Nc4nncs4)c(N)c3cc2C1 [Compound 278, 3-Amino-6-methyl-5,6,7,8-tetrahydro-thieno[2,3-b][1,6]naphthyridine-2-carboxylic acid [1,3,4]thiadiazol-2-ylamide] | < 4.60 |  | 
34 | Cc1ccc(F)cc1NC(=O)c1sc2nc(-c3ccc(F)cc3)ccc2c1N [Compound 623, 3-amino-N-(5-fluoro-2-methyl-phenyl)-6-(4-fluorophneyl)thieno[2,3-b]pyridine-2-carboxamide] |  | < 5 | 
35 | COc1cccc(-c2ccc3c(N)c(C(=O)Nc4ccc(Cl)cc4Cl)sc3n2)c1 [Compound 545, 3-amino-N-(2,4-dichlorophenyl)-6-(3-methoxyphenyl)thieno[2,3-b]pyridine-2-carboxamide] |  | < 5 | 
36 | CCN(C(=O)c1sc2nc(C)cc(C)c2c1N)c1ccccc1 [Compound 102, 3-Amino-4,6-dimethyl-thieno[2,3-b]pyridine-2-carboxylic acid ethyl-phenyl-amide] | 4.60 to 5.30 |  | 
37 | O=C(Nc1nccs1)c1sc2nc(N3CCOCC3)cc(-c3ccccc3)c2c1O [Compound 384, 3-hydroxy-6-morpholino-4-phenyl-N-thiazol-2-yl-thieno[2,3-b]pyridine-2-carboxamide] |  | 5 to 25 | 

From patent US20170121344A1 (Siga Technologies, Inc., priority 2009, published 2017)
